One experiment has as its system arrestin-1 (F85A, F197A). Put plainly: Limited trypsin digestion of arrestin-1 in presence of peptide. Type of experiment: biochemical, bovine. Conditions: arrestin:peptide 1:1.2, 35 °C, SDS PAGE. The source says:
Synthesized cDNAs of bovine arrestin-1, human arrestin-2 and human arrestin-3 were ordered from Genewiz, amplified by PCR and cloned (Supplementary Information Table 5) into the pET-15b vector (Novagen), using the Gibson Assembly protocol. The constructs contained an N-terminal hexa histidine tag linked by a linker that contained a Tobacco Etch Virus cleavage site (TEV; […]). PCR was used to introduce the monomerizing arrestin-1 mutations (F85A, F197A)[58]. Note that this mutant was employed for fluorescence anisotropy, trypsin digestion, and NMR experiments. Wild-type arrestin-2 and -3 were used for fluorescence anisotropy and trypsin digestion experiments. […] The arrestin-1 in this construct had the wild-type sequence. Note that this construct differs slightly from that previously published[59],[60] and was optimized for purification. We verified the functionality of this fusion construct using the standard centrifugal pull-down assay using phosphorylated rhodopsin in native ROS membranes.
Arrestin (60 µg) was mixed at a 1 to 1.2 molar ratio with peptide and preincubated at RT for 5 min before 1 μl of 0.15 mg/ml trypsin stock was added. The enzymatic digestion was carried out at 35 °C (20 mM Bis-Tris propane pH 7.0, 150 mM NaCl, 10 mM 2‑Mercaptoethanol and 2 mM EDTA). At certain time points (5, 15, 30, 60, 90 min), 5 μl aliquots were quenched with heat incubation in the presence of 20 μl SDS loading buffer (95 °C, 5 min) and then subjected to SDS PAGE. Bands were visualized with InstantBlue (Expedeon).

In a further experiment the test system is arrestin-1. Put plainly: [15N,1H]TROSY NMR titration of arrestin-1 with peptide. Type of experiment: binding, bovine. Conditions: peptide:arrestin-1 up to 10:1. How it is done: ^2H,^15N,^13C-labeled arrestin-1 aliquots were thawed quickly under running water, transferred to 30 kDa-cutoff Vivaspin (0.5 ml, Sartorius) centrifugal spin concentrators, and concentrated to approximately 600 μM. The concentrator was immediately transferred into a beaker filled with 400 ml of NMR buffer 1 or 2 (see below) carried by a floatation device. The dialysis was performed at 4 °C overnight. On the next day the concentration was determined by UV absorbance at 280 nm (molar extinction coefficient 26,360/mol/cm). […] The dialysis was performed at 4 °C overnight, and the peptide concentration was determined by its absorbance at 205 nm (molar extinction coefficient: 54,310/mol/cm). […]
NMR measurements were performed on Bruker Avance III-HD 600 or 900 MHz spectrometer using a CTCI cryo-cooled probehead. […] Pulse lengths were calibrated for ^1H manually and for ^13C/^15N using an in-house automated procedure. pH was monitored using the position of the phosphate signal in NMR buffer 2 as an internal reference and varied by no more than 0.03 pH units during peptide titration experiments. [^15N,^1H]TROSY experiments were recorded with internal ETH pulse sequences, whereas 3D triple resonance TROSY experiments were recorded using the manufacturer’s pulse sequences. […]

Experiment [1] deals with fully phosphorylated peptide 7P of the bovine rhodopsin C-terminus (bovine). As to the kind of experiment: fluorescence polarisation; fluorescence anisotropy; 20 nM fluorescently labelled peptide, 11-step serial dilution of arrestin; 20 mM Bis-Tris propane pH 7.0, 150 mM NaCl, 8 mM 2-mercaptoethanol, 2% BSA, 0.02% Tween-20; RT; one-to-one binding model. A general note: In fluorescence polarisation assays a small probe gives low polarisation when free and higher when bound to something large.

Experiment [2] has as its target bovine arrestin-1 with the monomerizing mutations F85A, F197A (bovine, UniProt P08168 2-404, F85A | F197A). Put plainly: FP.

Non-standard residues stand in square brackets, D forms with d. No end group written: not given here. pT = C[C@@H](OP(=O)(O)O)[C@H](N)C(=O)O; pS = N[C@@H](COP(=O)(O)O)C(=O)O Where only a bound is given, the exact number is not on record here.

Consider “CDDEASTTVSKTETSQVAPA [0P, nonphosphorylated peptide analog of the bovine rhodopsin C-terminus with N-terminal cysteine]”, for which the “limited trypsin digest pattern of arrestin-1 (conformational change, C-tail displacement)” value with arrestin-1 (F85A, F197A) is given as “three major bands”. Further, in the experiment with arrestin-1, the “NMR chemical shift / peak changes in arrestin-1 (in words)” value is reported as “some minor changes in peak intensity”. In experiment [1], “bovine arrestin-1 with the monomerizing mutations F85A, F197A (from UniProt P08168 2-404) (natural protein)” showed a Kd of less than 250 µM. C(fluorescein‑5‑maleimide)DDEASTTVSK[pT]ET[pS]QVAPA (also: third phosphorylation site not given here) [tri-phosphorylated peptide 3Pd of the bovine rhodopsin C-terminus] yielded a Kd in experiment [2] of 94 µM.

By Kd is commonly meant a measure of binding affinity in units of concentration. A low value points to tighter binding.

Values taken from publication PMC6424980, “Distinct G protein-coupled receptor phosphorylation motifs modulate arrestin affinity and activation and global conformation” (Nature Communications, 2019).
